Experimental data as given in the supplement of paper PMC10477900.
Counter-ions that a name gives are not always drawn.

Tests used:
[1] = system: HCT116; conditions: 72 h
Experimental: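 HCT116 control and MTA1-KO (CRISPR) HCT116 cells were seeded in 384-well plates (800 cells/well), treated 16 h later with 237 metabolism-related anticancer drugs at five doses (10 uM, 2 uM, 400 nM, 80 nM, 16 nM) for 72 h, two replicates; viability by CCK8. Values are % inhibition of viability relative to untreated cells, plus fitted IC50.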

[2] = system: HCT116; experiment: viability inhibition vs untreated; higher = more cytotoxic; conditions: 72 h

Structure (SMILES) | IC50 ([1]; genotype: MTA1-KO) [µM] | IC50 ([1]; genotype: control) [µM] | viability inhibition ([2]; genotype: MTA1-KO, 16 nM) [%] | viability inhibition ([2]; genotype: MTA1-KO, 80 nM) [%] | viability inhibition ([2]; genotype: MTA1-KO, 400 nM) [%] | viability inhibition ([2]; genotype: MTA1-KO, 2000 nM) [%] | viability inhibition ([2]; genotype: MTA1-KO, 10000 nM) [%] | viability inhibition ([2]; genotype: control, 16 nM) [%] | viability inhibition ([2]; genotype: control, 80 nM) [%] | viability inhibition ([2]; genotype: control, 400 nM) [%] | viability inhibition ([2]; genotype: control, 2000 nM) [%] | viability inhibition ([2]; genotype: control, 10000 nM) [%]
Cc1ccc(C(=O)Cn2c3c(sc2=N)CCCC3)cc1 [Pifithrin-α] | > 10 | > 10 | -1.55 | -3.09 | -7.19 | 3.88 | 32 | 9.06 | 2.07 | 21.3 | 9.85 | 22.1
Cc1ccc(-c2cn3c4c(sc3n2)CCCC4)cc1 [Pifithrin-β hydrobromide] | > 10 | > 10 | -6.36 | -17.5 | -18.2 | -13.4 | 33 | -6.38 | -10.8 | -7.66 | 2.45 | -13.6
NS(=O)(=O)C#Cc1ccccc1 [Pifithrin-μ] | > 10 | > 10 | -6.33 | -6.69 | -11.6 | -13.4 | -5.71 | 12.9 | -14.1 | -16.5 | -18.1 | 20.2
O=C(O)C[C@H](O)C[C@H](O)/C=C/c1c(C2CC2)nc2ccccc2c1-c1ccc(F)cc1 [Pitavastatin calcium] | > 10 | 3.1 | -24.4 | -25.7 | -30.7 | -23.8 | 31 | 11 | -0.547 | -0.73 | 5.9 | 75.5
C#CCC(Cc1cnc2nc(N)nc(N)c2n1)c1ccc(C(=O)N[C@@H](CCC(=O)O)C(=O)O)cc1 (stereo not given in full) [Pralatrexate] | 0.022 | < 0.016 | 37.5 | 71.4 | 71.7 | 75 | 77.3 | 52.4 | 77.9 | 78.8 | 80.6 | 79.1
CC[C@H](C)C(=O)O[C@H]1C[C@H](O)C=C2C=C[C@H](C)[C@H](CC[C@@H](O)C[C@@H](O)CC(=O)O)[C@H]21 [Pravastatin sodium] | > 10 | > 10 | 9.21 | -16.3 | -12.8 | -12.2 | -1.55 | 10.2 | -15.3 | -11.6 | -6.15 | 6.05
CC(=O)OCC(=O)[C@@]1(O)CC[C@H]2[C@@H]3CCC4=CC(=O)C=C[C@]4(C)[C@H]3[C@@H](O)C[C@@]21C [Prednisolone-21-acetate] | > 10 | > 10 | -12.5 | -14 | -3.35 | -0.355 | -5.46 | -5.13 | -7.24 | -8.51 | -7.3 | -12.1
CC(C)(Sc1cc(C(C)(C)C)c(O)c(C(C)(C)C)c1)Sc1cc(C(C)(C)C)c(O)c(C(C)(C)C)c1 [Probucol] | > 10 | > 10 | -5.9 | -11 | -1.83 | -5.06 | -0.265 | 6.44 | 11.6 | -2.62 | 16.6 | 9.78
CCc1nc(N)nc(N)c1-c1ccc(Cl)cc1 [Pyrimethamine] | 6.54 | 4.89 | -6.42 | -11.6 | -0.866 | 10.9 | 60.5 | 2.52 | 7.55 | 13.3 | 20.1 | 82.3
OCc1ccc(-c2ccc(-c3ccc(CO)s3)o2)s1 [RITA] | 1.21 | 0.153 | 7.71 | 35 | 91.7 | 101 | 99 | -0.895 | 27.2 | 72.5 | 96.3 | 104
Cc1nc2ccc(CN(C)c3ccc(C(=O)N[C@@H](CCC(=O)O)C(=O)O)s3)cc2c(=O)[nH]1 [Raltitrexed] | 0.0857 | > 10 | -4.56 | 33.6 | 75.8 | 81.5 | 82.6 | -7.91 | -17.2 | 24.9 | 13 | -5.41
COc1ccccc1OCC(O)CN1CCN(CC(=O)Nc2c(C)cccc2C)CC1 (stereo not given) [Ranolazine dihydrochloride] | > 10 | > 10 | -7.57 | -13.7 | -7.85 | -21.5 | -19 | -2.04 | 2.97 | -7.95 | -0.947 | 15
COc1ccccc1OCC(O)CN1CCN(CC(=O)Nc2c(C)cccc2C)CC1 (stereo not given) [Ranolazine] | 6.87 | > 10 | -0.081 | 5.69 | 8.98 | 2.99 | 74.3 | -8.25 | -12.6 | -15.3 | -15 | 8.96
CO[C@H]1C[C@@H]2CC[C@@H](C)[C@@](O)(O2)C(=O)C(=O)N2CCCC[C@H]2C(=O)O[C@H]([C@H](C)C[C@@H]2CC[C@@H](O)[C@H](OC)C2)CC(=O)[C@H](C)/C=C(\C)[C@@H](O)[C@@H](OC)C(=O)[C@H](C)C[C@H](C)/C=C/C=C/C=C/1C [Rapamycin] | > 10 | > 10 | 4.81 | 4.98 | 3.36 | 17.6 | 18.4 | -3 | -2.75 | 2.91 | 0.723 | 24.6
Cc1nc(Nc2ccc(F)cc2)nc(N2CCc3ccccc3C2C)c1C (stereo not given) [Revaprazan hydrochloride] | > 10 | > 10 | -4.67 | -1.6 | -2.29 | -13.6 | -33.6 | 20.9 | 17.7 | 11 | 7.17 | -10.8
C[C@]12CC[C@H](O)C[C@H]1CC[C@@H]1[C@@H]2CC[C@]2(C)[C@@](O)(c3ccoc3)CC[C@]12O [Rostafuroxin] | > 10 | > 10 | 11.8 | 13.5 | 10 | 14.5 | 30.6 | -0.895 | 11.7 | 13.9 | 5.09 | 13
CC(C)c1nc(N(C)S(C)(=O)=O)nc(-c2ccc(F)cc2)c1/C=C/[C@@H](O)C[C@@H](O)CC(=O)O [Rosuvastatin] | > 10 | > 10 | -4.22 | -8.46 | -10.3 | -11.2 | -10.9 | -1.14 | -8.14 | 4.9 | -10.3 | 31.2
C=C(C)[C@H]1Cc2c(ccc3c2O[C@@H]2COc4cc(OC)c(OC)cc4[C@@H]2C3=O)O1 [Rotenone] | 0.0743 | < 0.016 | 16.6 | 34.1 | 35.3 | 43.4 | 51.6 | 63.1 | 57.1 | 46.9 | 45.4 | 65.4

Structure (SMILES) | IC50 ([1]; genotype: MTA1-KO) [µM] | IC50 ([1]; genotype: control) [µM] | viability inhibition ([2]; genotype: MTA1-KO, 16 nM) [%] | viability inhibition ([2]; genotype: MTA1-KO, 80 nM) [%] | viability inhibition ([2]; genotype: MTA1-KO, 400 nM) [%] | viability inhibition ([2]; genotype: MTA1-KO, 2000 nM) [%] | viability inhibition ([2]; genotype: MTA1-KO, 10000 nM) [%] | viability inhibition ([2]; genotype: control, 16 nM) [%] | viability inhibition ([2]; genotype: control, 80 nM) [%] | viability inhibition ([2]; genotype: control, 400 nM) [%] | viability inhibition ([2]; genotype: control, 2000 nM) [%] | viability inhibition ([2]; genotype: control, 10000 nM) [%]
O=c1cc(N2CCOCC2)oc2c(-c3ccc4c(c3)OCCO4)csc12 [SF2523] | 8.68 | 9.37 | 7.25 | -7.41 | -9.52 | -14.8 | 68.1 | -25.2 | -16.4 | -24 | -23.1 | 55.5
C/C(=N\NC(=O)c1cccc(S(=O)(=O)N2CCOCC2)c1)c1cc(Cl)ccc1O [SP2509] | 0.69 | 0.493 | 13 | 7.45 | 18 | 98.5 | 99.6 | -5.87 | -2.4 | 14.8 | 104 | 103
CC(C)(C)c1ccc(S(=O)(=O)NCc2ccc(C(=O)Nc3cccnc3)cc2)cc1 [STF31] | > 10 | 1.33 | 0.724 | -19.9 | -8.95 | -5.53 | 6.98 | 18.1 | 6.81 | 42.8 | 43.4 | 74.1
c1ccc2c(CCNc3ccc(Nc4ccncc4)cc3)c[nH]c2c1 [Serdemetan] | 1.66 | 2.48 | 10.9 | 7.55 | 13.6 | 65.6 | 107 | 10.5 | 10.9 | 5.2 | 5.93 | 85.1
Oc1ccc2c(c1)OCO2 [Sesamol] | > 10 | > 10 | -15.3 | -20.6 | -20.7 | -23.5 | -9.02 | 12.7 | -1.76 | -11.9 | -12.6 | -2.94
O=C(O)c1ccc2c(c1)nc(Nc1cccc(Cl)c1)c1ccncc12 [Silmitasertib] | > 10 | > 10 | -17.2 | -23.7 | -18.2 | -24.2 | -22 | 7.6 | -9.55 | -4.38 | -8.94 | -1.95
O=C([O-])C(Cl)Cl.[Na+] [Sodium Dichloroacetate] | > 10 | > 10 | -5.96 | -6.01 | -16.4 | -11.2 | 11.1 | -15.2 | -8.93 | -10.2 | -22.3 | -2.12
Cc1c(CN2CCN(c3cccc(C(F)(F)F)c3)CC2)cc(-c2ccccc2)n1NC(=O)c1ccncc1 [Sudoterb free base] | > 10 | > 10 | -13.3 | -15.8 | -16 | -17 | 44.1 | -4.96 | 1.24 | -11 | -15 | -4.96
COc1cnc(NS(=O)(=O)c2ccc(N)cc2)nc1 [Sulfameter] | > 10 | > 10 | -10.8 | -13.8 | -0.547 | -4.82 | -3.61 | 0.414 | 5.13 | 12.1 | 8.51 | 0.478
Nc1ccc(S(N)(=O)=O)cc1 [Sulfanilamide] | > 10 | > 10 | -4.56 | -14.5 | -27.6 | -20.9 | -19.4 | -9.12 | -7.95 | -13.7 | -13.7 | -7.82
CC(C)(C)c1cc(O)ccc1O [TBHQ] | > 10 | > 10 | -1.6 | -25.5 | -23.4 | -13.4 | 41.7 | 16.6 | 25.3 | 20.9 | 17.7 | 17
CNc1cc(-c2cccc(Cl)c2Cl)nc(N)n1 [TH287 hydrochloride] | 1.6 | 1.9 | 18.9 | 15.8 | 23 | 65.5 | 94.7 | 4.08 | 10.5 | 1.79 | 63.9 | 87.3
Nc1nc(NC2CC2)cc(-c2cccc(Cl)c2Cl)n1 [TH588] | 5.34 | 8.67 | -0.076 | 6.2 | 2.73 | 14.7 | 80.3 | -7.89 | -5.19 | -7.31 | -7.46 | 74
C=CC[C@@H]1/C=C(\C)C[C@H](C)C[C@H](OC)[C@H]2O[C@@](O)(C(=O)C(=O)N3CCCC[C@H]3C(=O)O[C@H](/C(C)=C/[C@@H]3CC[C@@H](O)[C@H](OC)C3)[C@H](C)[C@@H](O)CC1=O)[C@H](C)C[C@@H]2OC [Tacrolimus] | > 10 | > 10 | -4.95 | -4.18 | 0.155 | -5.39 | -7.24 | 5.2 | 13.7 | 18 | 7.23 | 7.94
CO[C@H]1C[C@@H]2CC[C@@H](C)[C@@](O)(O2)C(=O)C(=O)N2CCCC[C@H]2C(=O)O[C@H]([C@H](C)C[C@@H]2CC[C@@H](OC(=O)C(C)(CO)CO)[C@H](OC)C2)CC(=O)[C@H](C)/C=C(\C)[C@@H](O)[C@@H](OC)C(=O)[C@H](C)C[C@H](C)/C=C/C=C/C=C/1C [Temsirolimus] | < 0.016 | > 10 | 56.3 | 49.2 | 48.4 | 46.7 | 60.5 | 12 | 10.7 | 8.05 | -1.62 | 46.1
CC(=O)Nc1ccc(NC(=S)NC(=O)c2ccc(C(C)(C)C)cc2)cc1 [Tenovin-1] | 0.456 | 0.931 | -26.3 | -21.8 | 12.8 | 59.2 | 62.3 | -20.9 | -18.3 | 3.67 | 73.1 | 90.4
CN(C)CCCCC(=O)Nc1ccc(NC(=S)NC(=O)c2ccc(C(C)(C)C)cc2)cc1 [Tenovin-6] | > 10 | 7.71 | -14.1 | -19.6 | -23.8 | -20.1 | 43.5 | -8.39 | 1.22 | 8.03 | 5.54 | 67.5
